Data from patent publication US10590132B2, “Selective estrogen receptor down-regulators” (AstraZeneca AB, priority 2017, dated 2020).

Test: Human plasma protein binding (equilibrium dialysis)
Format: in vitro ADME
Settings: dialysis 18 hours

SMILES | Human plasma protein binding (% free)
C[C@@H]1Cc2c([nH]c3ccccc23)[C@@H](c2c(F)c(F)cc(OCCNCCCF)c2F)N1CC(F)(F)F [Example 32, 3-fluoro-N-(2-(2,4,5-trifluoro-3-((1R,3R)-3-methyl-2-(2,2,2-trifluoroethyl)-2,3,4,9-tetrahydro-1H-pyrido[3,4-b]indol-1-yl)phenoxy)ethyl)propan-1-amine] | 0.52
COc1ccc(OCCNCCCF)nc1[C@@H]1c2[nH]c3ccccc3c2C[C@@H](C)N1CC(F)(F)F [Example 56, 3-fluoro-N-(2-((5-methoxy-6-((1S,3R)-3-methyl-2-(2,2,2-trifluoroethyl)-2,3,4,9-tetrahydro-1H-pyrido[3,4-b]indol-1-yl)pyridin-2-yl)oxy)ethyl)propan-1-amine] | 4.6
COc1ccc(OCCNCCCF)c(F)c1[C@@H]1c2[nH]c3ccccc3c2C[C@@H](C)N1CC(F)F [Example 82, N-(2-(3-((1R,3R)-2-(2,2-difluoroethyl)-3-methyl-2,3,4,9-tetrahydro-1H-pyrido[3,4-b]indol-1-yl)-2-fluoro-4-methoxyphenoxy)ethyl)-3-fluoropropan-1-amine] | 1.9
COc1ccc(OCCNCCCF)cc1[C@@H]1c2[nH]c3ccccc3c2C[C@@H](C)N1CC(F)(F)F [Example 7, 3-Fluoro-N-(2-(4-methoxy-3-((1R,3R)-3-methyl-2-(2,2,2-trifluoroethyl)-2,3,4,9-tetrahydro-1H-pyrido[3,4-b]indol-1-yl)phenoxy)ethyl)propan-1-amine] | 1.5
C[C@@H]1Cc2c([nH]c3ccc(F)cc23)[C@@H](c2c(F)cnc(OCCNCCCF)c2F)N1CC(F)(F)CO [Example 65, 3-((1R,3R)-1-(3,5-difluoro-2-(2-((3-fluoropropyl)amino)ethoxy)pyridin-4-yl)-6-fluoro-3-methyl-1,3,4,9-tetrahydro-2H-pyrido[3,4-b]indol-2-yl)-2,2-difluoropropan-1-ol] | 1.9
C[C@@H]1Cc2c([nH]c3c(F)cccc23)[C@@H](c2c(F)ccc(OCCNCCCF)c2F)N1CC(F)(F)CO [Example 60, 3-((1R,3R)-1-(2,6-difluoro-3-(2-((3-fluoropropyl)amino)ethoxy)phenyl)-8-fluoro-3-methyl-1,3,4,9-tetrahydro-2H-pyrido[3,4-b]indol-2-yl)-2,2-difluoropropan-1-ol] | 1.9
C[C@@H]1Cc2c([nH]c3ccccc23)[C@@H](c2cncc(OCCNCCCF)c2)N1CC(F)(F)F [Example 101, 3-fluoro-N-(2-((5-((1R,3R)-3-methyl-2-(2,2,2-trifluoroethyl)-2,3,4,9-tetrahydro-1H-pyrido[3,4-b]indol-1-yl)pyridin-3-yl)oxy)ethyl)propan-1-amine] | 8.4
C[C@@H]1Cc2c([nH]c3ccccc23)[C@@H](c2c(F)cnc(OCCNCCCF)c2F)N1CC(F)(F)F [Example 107, N-(2-((3,5-difluoro-4-((1R,3R)-3-methyl-2-(2,2,2-trifluoroethyl)-2,3,4,9-tetrahydro-1H-pyrido[3,4-b]indol-1-yl)pyridin-2-yl)oxy)ethyl)-3-fluoropropan-1-amine] | 1
Cc1ccc2[nH]c3c(c2c1)C[C@@H](C)N(CC(F)(F)CO)[C@@H]3c1c(F)cnc(OCCNCCCF)c1F [Example 66, 3-((1R,3R)-1-(3,5-difluoro-2-(2-((3-fluoropropyl)amino)ethoxy)pyridin-4-yl)-3,6-dimethyl-1,3,4,9-tetrahydro-2H-pyrido[3,4-b]indol-2-yl)-2,2-difluoropropan-1-ol] | 1.3
COc1c(F)cc(OCCNCCCF)c(F)c1[C@@H]1c2[nH]c3ccccc3c2C[C@@H](C)N1CC(F)(F)F [Example 29, N-(2-(2,5-difluoro-4-methoxy-3-((1R,3R)-3-methyl-2-(2,2,2-trifluoroethyl)-2,3,4,9-tetrahydro-1H-pyrido[3,4-b]indol-1-yl)phenoxy)ethyl)-3-fluoropropan-1-amine] | <3.2
COc1cc(F)c(NCCNCCCF)cc1[C@@H]1c2[nH]c3ccccc3c2C[C@@H](C)N1CC(F)(F)F [Example 91, N1-(2-fluoro-4-methoxy-5-((1R,3R)-3-methyl-2-(2,2,2-trifluoroethyl)-2,3,4,9-tetrahydro-1H-pyrido[3,4-b]indol-1-yl)phenyl)-N2-(3-fluoropropyl)ethane-1,2-diamine] | 0.93
C[C@@H]1Cc2c([nH]c3cccc(F)c23)[C@@H](c2c(F)ccc(OCCNCCCF)c2F)N1CC(F)(F)CO [Example 62, 3-((1R,3R)-1-(2,6-difluoro-3-(2-((3-fluoropropyl)amino)ethoxy)phenyl)-5-fluoro-3-methyl-1,3,4,9-tetrahydro-2H-pyrido[3,4-b]indol-2-yl)-2,2-difluoropropan-1-ol] | 1.2
Cc1c(OCCNCCCF)cncc1[C@@H]1c2[nH]c3ccccc3c2C[C@@H](C)N1CC(F)(F)F [Example 38, 3-fluoro-N-(2-((4-methyl-5-((1R,3R)-3-methyl-2-(2,2,2-trifluoroethyl)-2,3,4,9-tetrahydro-1H-pyrido[3,4-b]indol-1-yl)pyridin-3-yl)oxy)ethyl)propan-1-amine] | 0.91
C[C@@H]1Cc2c([nH]c3ccccc23)[C@@H](c2nccc(OCCNCCCF)c2Cl)N1CC(F)(F)F [Example 93, N-(2-((3-chloro-2-((1S,3R)-3-methyl-2-(2,2,2-trifluoroethyl)-2,3,4,9-tetrahydro-1H-pyrido[3,4-b]indol-1-yl)pyridin-4-yl)oxy)ethyl)-3-fluoropropan-1-amine] | 0.34
CCc1ccc(OCCNCCCF)cc1[C@@H]1c2[nH]c3ccccc3c2C[C@@H](C)N1CC(F)(F)F [Example 21, N-(2-(4-ethyl-3-((1R,3R)-3-methyl-2-(2,2,2-trifluoroethyl)-2,3,4,9-tetrahydro-1H-pyrido[3,4-b]indol-1-yl)phenoxy)ethyl)-3-fluoropropan-1-amine] | 0.10
COc1c(F)cc(OCCNCCCF)cc1[C@@H]1c2[nH]c3ccccc3c2C[C@@H](C)N1CC(F)(F)F [Example 27, 3-fluoro-N-(2-(3-fluoro-4-methoxy-5-((1R,3R)-3-methyl-2-(2,2,2-trifluoroethyl)-2,3,4,9-tetrahydro-1H-pyrido[3,4-b]indol-1-yl)phenoxy)ethyl)propan-1-amine] | 0.42
Cc1c(OCCNCCCF)ccc(F)c1[C@@H]1c2[nH]c3ccccc3c2C[C@@H](C)N1CCC#N [Example 87, 3-((1R,3R)-1-(6-fluoro-3-(2-((3-fluoropropyl)amino)ethoxy)-2-methylphenyl)-3-methyl-1,3,4,9-tetrahydro-2H-pyrido[3,4-b]indol-2-yl)propanenitrile] | 1.6

Results, then the compound that gave them:

Human plasma protein binding (% free) | SMILES
80 | COc1ccc(OCCNCCCF)cc1[C@@H]1c2[nH]c3ccccc3c2C[C@@H](C)N1C[C@H](C)C(=O)O [Example 53, (S)-3-((1R,3R)-1-(5-(2-((3-fluoropropyl)amino)ethoxy)-2-methoxyphenyl)-3-methyl-1,3,4,9-tetrahydro-2H-pyrido[3,4-b]indol-2-yl)-2-methylpropanoic acid]
8.4 | Cc1c(OCCNCCCF)ccc(F)c1[C@@H]1c2[nH]c3ccccc3c2C[C@@H](C)N1CC(F)(F)C(=O)O [Example 118, 2,2-difluoro-3-((1R,3R)-1-(6-fluoro-3-(2-((3-fluoropropyl)amino)ethoxy)-2-methylphenyl)-3-methyl-1,3,4,9-tetrahydro-2H-pyrido[3,4-b]indol-2-yl)propanoic acid]
15 | C[C@@H]1Cc2c([nH]c3ccccc23)[C@@H](c2c(Cl)ccc(OCCNCCCF)c2Cl)N1C[C@H](C)C(=O)O [Example 128, (S)-3-((1R,3R)-1-(2,6-dichloro-3-(2-((3-fluoropropyl)amino)ethoxy)phenyl)-3-methyl-1,3,4,9-tetrahydro-2H-pyrido[3,4-b]indol-2-yl)-2-methylpropanoic acid]
5.3 | Cc1c(OCCN(C)CCCF)ccc(F)c1[C@@H]1c2[nH]c3ccccc3c2C[C@@H](C(F)(F)F)N1C[C@H](C)C(=O)O [Example 149, (S)-3-((1R,3S)-1-(6-fluoro-3-(2-((3-fluoropropyl)(methyl)amino)ethoxy)-2-methylphenyl)-3-(trifluoromethyl)-1,3,4,9-tetrahydro-2H-pyrido[3,4-b]indol-2-yl)-2-methylpropanoic acid]
2.2 | C[C@@H]1Cc2c([nH]c3ccccc23)[C@@H](c2cccc(OCCNCCCF)c2C#N)N1CC(F)(F)F [Example 69, 2-(2-((3-fluoropropyl)amino)ethoxy)-6-((1R,3R)-3-methyl-2-(2,2,2-trifluoroethyl)-2,3,4,9-tetrahydro-1H-pyrido[3,4-b]indol-1-yl)benzonitrile]
2.9 | COc1ccc(OCCNCCCF)c(F)c1[C@@H]1c2[nH]c3ccccc3c2C[C@@H](C)N1CC(F)(F)CO [Example 81, 2,2-difluoro-3-((1R,3R)-1-(2-fluoro-3-(2-((3-fluoropropyl)amino)ethoxy)-6-methoxyphenyl)-3-methyl-1,3,4,9-tetrahydro-2H-pyrido[3,4-b]indol-2-yl)propan-1-ol]
2.5 | COc1ccc(OCCNCCCF)c(F)c1[C@@H]1c2[nH]c3ccccc3c2C[C@@H](C)N1CC1(F)CC1 [Example 83, 3-fluoro-N-(2-(2-fluoro-3-((1R,3R)-2-((1-fluorocyclopropyl)methyl)-3-methyl-2,3,4,9-tetrahydro-1H-pyrido[3,4-b]indol-1-yl)-4-methoxyphenoxy)ethyl)propan-1-amine]
2.3 | Cc1ncc(OCCNCCCF)cc1[C@@H]1c2[nH]c3ccccc3c2C[C@@H](C)N1CC(F)(F)F [Example 37, 3-fluoro-N-(2-((6-methyl-5-((1R,3R)-3-methyl-2-(2,2,2-trifluoroethyl)-2,3,4,9-tetrahydro-1H-pyrido[3,4-b]indol-1-yl)pyridin-3-yl)oxy)ethyl)propan-1-amine]
